From ChEMBL document CHEMBL4507303, “Data for DCP probe TP-004” (2021)

Assays:
[1] = molecular target: Sodium-dependent dopamine transporter (Homo sapiens, UniProt Q01959); assay: GPCRScan assay: inhibition of DAT; parameters: radioligand conc. used [nm] 3.6 – 16.0, parental cells stable HEK
[2] = molecular target: GABA-A receptor; anion channel; assay: GPCRScan assay: inhibition of GABAA/BZP; format: protein-complex assay, Rattus norvegicus; parameters: radioligand conc. used [nm] 0.6 – 4.0, parental cells brain tissue
[3] = tested on: ALK tyrosine kinase receptor (Homo sapiens), Q9UM73 [C1156Y]; conditions: Compound concentration 1000.0 nM
[4] = tested on: ALK tyrosine kinase receptor (Homo sapiens), Q9UM73 [L1196M]; conditions: Compound concentration 1000.0 nM
[5] = molecular target: Aurora kinase C (Homo sapiens) (UniProt Q9UQB9); conditions: Compound concentration 1000.0 nM
[6] = molecular target: Tyrosine-protein kinase receptor UFO (Homo sapiens) (UniProt P30530); conditions: Compound concentration 1000.0 nM
[7] = molecular target: Cyclin-dependent kinase 5 (Homo sapiens) (UniProt Q00535); conditions: Compound concentration 1000.0 nM
[8] = molecular target: Cyclin-dependent kinase 9 (Homo sapiens) (UniProt P50750); conditions: Compound concentration 1000.0 nM
[9] = molecular target: Serine/threonine-protein kinase Chk1 (Homo sapiens) (UniProt O14757); conditions: Compound concentration 1000.0 nM
[10] = molecular target: Citron Rho-interacting kinase (Homo sapiens) (UniProt O14578); conditions: Compound concentration 1000.0 nM
[11] = molecular target: Casein kinase I isoform gamma-3 (Homo sapiens) (UniProt Q9Y6M4); conditions: Compound concentration 1000.0 nM
[12] = molecular target: Casein kinase II subunit alpha' (Homo sapiens) (UniProt P19784); conditions: Compound concentration 1000.0 nM
[13] = molecular target: Death-associated protein kinase 2 (Homo sapiens) (UniProt Q9UIK4); conditions: Compound concentration 1000.0 nM
[14] = tested on: Epidermal growth factor receptor (Homo sapiens), P00533 [UNDEFINED MUTATION]; conditions: Compound concentration 1000.0 nM
[15] = molecular target: Eukaryotic translation initiation factor 2-alpha kinase 1 (Homo sapiens) (UniProt Q9BQI3); conditions: Compound concentration 1000.0 nM
[16] = molecular target: Ephrin type-A receptor 1 (Homo sapiens) (UniProt P21709); conditions: Compound concentration 1000.0 nM
[17] = molecular target: Receptor tyrosine-protein kinase erbB-4 (Homo sapiens) (UniProt Q15303); conditions: Compound concentration 1000.0 nM
[18] = tested on: Fibroblast growth factor receptor 3 (Homo sapiens), P22607 [G697C]; conditions: Compound concentration 1000.0 nM
[19] = molecular target: Vascular endothelial growth factor receptor 1 (Homo sapiens) (UniProt P17948); conditions: Compound concentration 1000.0 nM
[20] = tested on: Receptor-type tyrosine-protein kinase FLT3 (Homo sapiens), P36888 [UNDEFINED MUTATION]; conditions: Compound concentration 1000.0 nM
[21] = tested on: Receptor-type tyrosine-protein kinase FLT3 (Homo sapiens), P36888 [N841I]; conditions: Compound concentration 1000.0 nM
[22] = molecular target: Homeodomain-interacting protein kinase 3 (Homo sapiens) (UniProt Q9H422); conditions: Compound concentration 1000.0 nM
[23] = molecular target: Inhibitor of nuclear factor kappa-B kinase subunit alpha (Homo sapiens) (UniProt O15111); conditions: Compound concentration 1000.0 nM
[24] = molecular target: Insulin receptor-related protein (Homo sapiens) (UniProt P14616); conditions: Compound concentration 1000.0 nM
[25] = molecular target: Tyrosine-protein kinase JAK2 (Homo sapiens) (UniProt O60674); conditions: Compound concentration 1000.0 nM
[26] = tested on: Mast/stem cell growth factor receptor Kit (Homo sapiens), P10721 [D816H]; conditions: Compound concentration 1000.0 nM
[27] = molecular target: Mitogen-activated protein kinase kinase kinase 15 (Homo sapiens) (UniProt Q6ZN16); conditions: Compound concentration 1000.0 nM
[28] = molecular target: Mitogen-activated protein kinase kinase kinase kinase 5 (Homo sapiens) (UniProt Q9Y4K4); conditions: Compound concentration 1000.0 nM
[29] = molecular target: Dual specificity mitogen-activated protein kinase kinase 6 (Homo sapiens) (UniProt P52564); conditions: Compound concentration 1000.0 nM
[30] = molecular target: Macrophage-stimulating protein receptor (Homo sapiens) (UniProt Q04912); conditions: Compound concentration 1000.0 nM
[31] = molecular target: Myosin light chain kinase, smooth muscle (Homo sapiens) (UniProt Q15746); conditions: Compound concentration 1000.0 nM
[32] = molecular target: Myosin-IIIa (Homo sapiens) (UniProt Q8NEV4); conditions: Compound concentration 1000.0 nM
[33] = molecular target: Serine/threonine-protein kinase Nek1 (Homo sapiens) (UniProt Q96PY6); conditions: Compound concentration 1000.0 nM
[34] = molecular target: Serine/threonine-protein kinase Nek4 (Homo sapiens) (UniProt P51957); conditions: Compound concentration 1000.0 nM
[35] = molecular target: Serine/threonine-protein kinase Nek6 (Homo sapiens) (UniProt Q9HC98); conditions: Compound concentration 1000.0 nM
[36] = molecular target: Mitogen-activated protein kinase 14 (Homo sapiens) (UniProt Q16539); conditions: Compound concentration 1000.0 nM
[37] = molecular target: Serine/threonine-protein kinase PAK 4 (Homo sapiens) (UniProt O96013); conditions: Compound concentration 1000.0 nM
[38] = molecular target: Platelet-derived growth factor receptor beta (Homo sapiens) (UniProt P09619); conditions: Compound concentration 1000.0 nM
[39] = molecular target: Cyclin-dependent kinase 15 (Homo sapiens) (UniProt Q96Q40); conditions: Compound concentration 1000.0 nM
[40] = tested on: Proto-oncogene tyrosine-protein kinase receptor Ret (Homo sapiens), P07949 [V804L]; conditions: Compound concentration 1000.0 nM
[41] = molecular target: Ribosomal protein S6 kinase alpha-6 (Homo sapiens) (UniProt Q9UK32); conditions: Compound concentration 1000.0 nM
[42] = molecular target: SRSF protein kinase 2 (Homo sapiens) (UniProt P78362); conditions: Compound concentration 1000.0 nM
[43] = molecular target: BDNF/NT-3 growth factors receptor (Homo sapiens) (UniProt Q16620); conditions: Compound concentration 1000.0 nM
[44] = molecular target: Testis-specific serine/threonine-protein kinase 1 (Homo sapiens) (UniProt Q9BXA7); conditions: Compound concentration 1000.0 nM
[45] = molecular target: Histamine H1 receptor (Homo sapiens) (UniProt P35367); conditions: Compound concentration 10.0 uM

Sodium-dependent dopamine transporter, sequence (Q01959 whole entry): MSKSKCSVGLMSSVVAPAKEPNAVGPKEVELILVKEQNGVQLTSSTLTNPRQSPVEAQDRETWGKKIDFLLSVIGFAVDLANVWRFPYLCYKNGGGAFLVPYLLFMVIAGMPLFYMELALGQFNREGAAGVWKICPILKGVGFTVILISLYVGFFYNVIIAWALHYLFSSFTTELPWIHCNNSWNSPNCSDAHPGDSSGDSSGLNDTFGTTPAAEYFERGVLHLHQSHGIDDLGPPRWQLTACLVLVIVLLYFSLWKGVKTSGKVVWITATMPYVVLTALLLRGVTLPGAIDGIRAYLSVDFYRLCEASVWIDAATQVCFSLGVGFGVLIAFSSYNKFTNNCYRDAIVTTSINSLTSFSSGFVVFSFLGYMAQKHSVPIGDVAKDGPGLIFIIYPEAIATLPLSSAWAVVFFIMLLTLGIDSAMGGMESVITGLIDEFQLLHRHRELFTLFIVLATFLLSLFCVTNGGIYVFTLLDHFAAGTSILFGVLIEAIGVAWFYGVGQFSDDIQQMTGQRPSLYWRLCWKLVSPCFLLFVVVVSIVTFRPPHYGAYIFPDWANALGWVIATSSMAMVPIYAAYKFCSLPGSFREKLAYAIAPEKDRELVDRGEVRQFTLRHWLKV
BDNF/NT-3 growth factors receptor (Homo sapiens), sequence (Q16620 32-822 limits assumed): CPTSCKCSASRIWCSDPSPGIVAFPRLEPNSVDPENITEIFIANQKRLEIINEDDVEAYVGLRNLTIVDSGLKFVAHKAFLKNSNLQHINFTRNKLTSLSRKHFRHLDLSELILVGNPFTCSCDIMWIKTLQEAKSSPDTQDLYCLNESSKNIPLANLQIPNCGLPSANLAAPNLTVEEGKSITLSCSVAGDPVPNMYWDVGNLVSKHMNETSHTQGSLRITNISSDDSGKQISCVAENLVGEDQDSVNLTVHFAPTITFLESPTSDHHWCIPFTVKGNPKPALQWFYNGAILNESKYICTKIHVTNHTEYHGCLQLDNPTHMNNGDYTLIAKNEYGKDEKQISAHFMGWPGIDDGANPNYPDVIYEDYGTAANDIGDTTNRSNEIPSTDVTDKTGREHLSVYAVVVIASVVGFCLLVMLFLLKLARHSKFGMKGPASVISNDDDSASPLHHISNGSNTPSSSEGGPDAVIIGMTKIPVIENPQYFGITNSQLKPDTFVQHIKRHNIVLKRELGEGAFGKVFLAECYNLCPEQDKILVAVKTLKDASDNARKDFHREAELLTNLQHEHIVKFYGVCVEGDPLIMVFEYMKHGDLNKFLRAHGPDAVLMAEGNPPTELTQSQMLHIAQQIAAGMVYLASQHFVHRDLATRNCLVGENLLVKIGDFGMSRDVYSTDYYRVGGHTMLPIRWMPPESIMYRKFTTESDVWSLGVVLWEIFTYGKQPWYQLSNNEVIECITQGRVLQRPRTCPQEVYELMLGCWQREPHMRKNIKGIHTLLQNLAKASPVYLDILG
Mitogen-activated protein kinase kinase kinase 15 (Homo sapiens), sequence (Q6ZN16 whole entry): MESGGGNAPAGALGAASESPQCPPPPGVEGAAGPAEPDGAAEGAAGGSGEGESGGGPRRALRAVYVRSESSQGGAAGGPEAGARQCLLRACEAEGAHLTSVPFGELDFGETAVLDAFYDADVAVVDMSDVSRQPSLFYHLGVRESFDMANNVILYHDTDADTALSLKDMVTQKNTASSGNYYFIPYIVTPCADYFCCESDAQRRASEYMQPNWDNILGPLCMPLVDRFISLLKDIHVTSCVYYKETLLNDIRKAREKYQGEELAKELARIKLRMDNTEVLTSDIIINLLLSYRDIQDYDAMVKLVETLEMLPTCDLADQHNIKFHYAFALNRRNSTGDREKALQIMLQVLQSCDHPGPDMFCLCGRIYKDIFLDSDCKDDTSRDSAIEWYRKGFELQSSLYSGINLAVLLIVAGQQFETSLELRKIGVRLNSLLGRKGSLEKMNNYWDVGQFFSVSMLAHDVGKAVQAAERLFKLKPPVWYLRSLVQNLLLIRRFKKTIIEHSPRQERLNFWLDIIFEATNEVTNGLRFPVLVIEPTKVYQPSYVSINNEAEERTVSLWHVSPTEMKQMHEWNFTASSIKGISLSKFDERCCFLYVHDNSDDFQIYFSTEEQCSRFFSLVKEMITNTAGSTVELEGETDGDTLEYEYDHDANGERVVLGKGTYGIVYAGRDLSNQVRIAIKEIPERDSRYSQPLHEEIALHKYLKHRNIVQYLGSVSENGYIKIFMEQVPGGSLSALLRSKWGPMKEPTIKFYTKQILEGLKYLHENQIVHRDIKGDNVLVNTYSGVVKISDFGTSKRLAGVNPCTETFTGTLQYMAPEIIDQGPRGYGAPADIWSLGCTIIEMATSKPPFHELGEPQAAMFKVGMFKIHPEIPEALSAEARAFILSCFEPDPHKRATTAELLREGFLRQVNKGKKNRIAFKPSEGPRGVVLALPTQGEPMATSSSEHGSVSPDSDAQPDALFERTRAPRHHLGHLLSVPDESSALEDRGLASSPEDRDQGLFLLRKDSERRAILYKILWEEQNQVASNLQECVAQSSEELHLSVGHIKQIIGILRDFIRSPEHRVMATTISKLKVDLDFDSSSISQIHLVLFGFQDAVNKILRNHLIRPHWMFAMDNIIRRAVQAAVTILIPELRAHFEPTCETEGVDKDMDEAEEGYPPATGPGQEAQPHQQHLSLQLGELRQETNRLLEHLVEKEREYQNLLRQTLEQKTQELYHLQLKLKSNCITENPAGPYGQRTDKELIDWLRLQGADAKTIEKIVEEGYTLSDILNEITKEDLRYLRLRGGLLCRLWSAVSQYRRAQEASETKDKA
Myosin light chain kinase, smooth muscle (Homo sapiens), sequence (Q15746 whole entry): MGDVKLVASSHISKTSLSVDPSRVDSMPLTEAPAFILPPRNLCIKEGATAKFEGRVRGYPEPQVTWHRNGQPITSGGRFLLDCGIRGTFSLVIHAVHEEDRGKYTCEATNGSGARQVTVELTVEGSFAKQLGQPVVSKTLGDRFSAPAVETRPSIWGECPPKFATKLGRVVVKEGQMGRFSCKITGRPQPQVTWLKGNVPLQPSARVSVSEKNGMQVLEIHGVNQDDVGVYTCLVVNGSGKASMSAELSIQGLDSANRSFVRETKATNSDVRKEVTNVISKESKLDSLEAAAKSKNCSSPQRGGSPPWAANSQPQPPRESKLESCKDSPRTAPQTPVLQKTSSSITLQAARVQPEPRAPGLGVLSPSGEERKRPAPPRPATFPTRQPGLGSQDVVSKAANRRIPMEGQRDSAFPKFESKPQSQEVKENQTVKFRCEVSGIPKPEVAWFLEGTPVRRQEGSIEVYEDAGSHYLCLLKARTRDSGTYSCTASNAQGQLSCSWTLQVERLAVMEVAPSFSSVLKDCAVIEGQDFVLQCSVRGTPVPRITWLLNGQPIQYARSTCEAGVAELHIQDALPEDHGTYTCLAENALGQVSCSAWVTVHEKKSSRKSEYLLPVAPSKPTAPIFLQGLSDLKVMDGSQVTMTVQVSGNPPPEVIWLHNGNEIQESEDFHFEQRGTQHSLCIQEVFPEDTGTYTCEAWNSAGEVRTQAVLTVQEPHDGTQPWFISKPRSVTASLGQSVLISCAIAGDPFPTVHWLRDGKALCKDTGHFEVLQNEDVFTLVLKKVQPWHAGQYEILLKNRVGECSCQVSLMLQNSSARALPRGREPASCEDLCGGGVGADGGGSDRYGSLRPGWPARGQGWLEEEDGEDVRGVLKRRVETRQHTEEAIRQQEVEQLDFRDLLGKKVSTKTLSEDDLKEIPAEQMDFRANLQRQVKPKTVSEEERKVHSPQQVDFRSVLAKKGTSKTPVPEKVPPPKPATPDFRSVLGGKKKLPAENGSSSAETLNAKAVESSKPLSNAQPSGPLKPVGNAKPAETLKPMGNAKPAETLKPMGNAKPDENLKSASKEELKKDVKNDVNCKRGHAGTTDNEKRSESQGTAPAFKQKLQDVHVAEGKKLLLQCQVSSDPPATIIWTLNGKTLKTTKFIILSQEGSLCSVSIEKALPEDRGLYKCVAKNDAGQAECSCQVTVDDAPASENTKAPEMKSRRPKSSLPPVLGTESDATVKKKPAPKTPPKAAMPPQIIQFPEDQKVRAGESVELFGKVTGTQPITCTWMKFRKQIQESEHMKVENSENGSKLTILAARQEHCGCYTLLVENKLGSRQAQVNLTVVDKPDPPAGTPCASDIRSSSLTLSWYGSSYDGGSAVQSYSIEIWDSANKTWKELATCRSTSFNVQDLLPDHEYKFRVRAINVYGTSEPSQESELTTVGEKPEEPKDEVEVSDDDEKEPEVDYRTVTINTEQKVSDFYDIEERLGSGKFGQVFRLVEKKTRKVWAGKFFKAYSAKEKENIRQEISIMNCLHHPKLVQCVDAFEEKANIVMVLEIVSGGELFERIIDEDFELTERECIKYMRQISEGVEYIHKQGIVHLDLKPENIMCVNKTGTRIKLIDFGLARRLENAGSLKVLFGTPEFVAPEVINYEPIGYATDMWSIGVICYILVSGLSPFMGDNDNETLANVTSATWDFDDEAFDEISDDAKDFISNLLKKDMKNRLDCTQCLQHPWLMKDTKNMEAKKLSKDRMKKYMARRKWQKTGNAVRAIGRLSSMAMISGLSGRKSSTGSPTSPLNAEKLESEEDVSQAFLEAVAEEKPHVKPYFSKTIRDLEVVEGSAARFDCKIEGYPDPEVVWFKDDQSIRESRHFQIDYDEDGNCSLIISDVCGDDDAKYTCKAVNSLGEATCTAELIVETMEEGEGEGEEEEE
Aurora kinase C (Homo sapiens), sequence (Q9UQB9 whole entry): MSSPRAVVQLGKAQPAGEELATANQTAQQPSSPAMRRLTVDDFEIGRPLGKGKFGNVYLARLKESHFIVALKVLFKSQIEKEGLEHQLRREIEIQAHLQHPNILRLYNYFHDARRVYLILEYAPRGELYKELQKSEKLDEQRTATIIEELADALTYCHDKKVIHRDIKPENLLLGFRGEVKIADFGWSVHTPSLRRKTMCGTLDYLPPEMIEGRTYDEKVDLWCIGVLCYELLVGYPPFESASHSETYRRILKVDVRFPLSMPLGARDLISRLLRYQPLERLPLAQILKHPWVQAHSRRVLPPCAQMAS

**Q.** Which results are given for Cc1nc(N2CC[C@@H](O)C2)ncc1-c1cc(C(F)(F)F)cc2[nH]ncc12 [TP-004]?
**A.** Ki ([1]; read-out: Ki): 1680 nM; Ki ([1]; read-out: pKi (converted)): 1580 nM; Ki [2]: 4540 nM; residual activity [3]: 100%; residual activity [4]: 98%; residual activity [5]: 100%; residual activity [6]: 80%; residual activity [7]: 99%; residual activity [8]: 87%; residual activity [9]: 100%; residual activity [10]: 82%; residual activity [11]: 74%; residual activity [12]: 91%; residual activity [13]: 100%; residual activity [14]: 99%; residual activity [15]: 98%; residual activity [16]: 85%; residual activity [17]: 87%; residual activity [18]: 90%; residual activity [19]: 100%; residual activity [20]: 54%; residual activity [21]: 88%; residual activity [22]: 54%; residual activity [23]: 76%; residual activity [24]: 87%; residual activity [25]: 61%; residual activity [26]: 53%; residual activity [27]: 100%; residual activity [28]: 75%; residual activity [29]: 100%; residual activity [30]: 100%; residual activity [31]: 100%; residual activity [32]: 100%; residual activity [33]: 100%; residual activity [34]: 81%; residual activity [35]: 89%; residual activity [36]: 100%; residual activity [37]: 100%; residual activity [38]: 58%; residual activity [39]: 81%; residual activity [40]: 100%; residual activity [41]: 51%; residual activity [42]: 100%; residual activity [43]: 53%; residual activity [44]: 98%; inhibition [45]: 0.239%
